# Data taken from patent US20240376121A1, “COMPOUNDS AND USES THEREOF” (Foghorn Therapeutics Inc., priority 2021, published 2024).
# Experiments:
# HiBit-BRM fusion protein = target: T1, HiBit-BRM fusion protein (Homo sapiens, UniProt P51531); test: HiBiT-BRM cell-based degradation assay (Nano-Glo HiBiT Lytic Detection); details: stable HeLa cell line expressing HiBiT-BRM, 24 h incubation; for BRM HiBit Degradation Maximum (%): top dose 30 μM; for DC50: read-out: BRM HiBit Degradation IC50
# T1 construct: expressed in transfected cells
# How it was run: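 Luminescence from reconstituted NanoBiT luciferase in lysed HeLa HiBiT-BRM cells served as the measure of remaining BRM after 24 h treatment. Compounds were tested from 30 μM final downward in 3-fold steps. DMSO and 2 μM of a standard BRM/BRG1 degrader defined the scale limits.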
# [1] = target: T2, HiBit-BRG1 fusion protein (Homo sapiens, UniProt P51532); test: HiBiT-BRG1 cell-based degradation assay (Nano-Glo HiBiT Lytic Detection); details: stable HeLa cell line expressing HiBit-BRG1 and LgBit, 24 h incubation; for Dmax: top dose 30 μM, read-out: BRG1 HiBit Degradation Maximum (%); for DC50: read-out: BRMG1 HiBit Degradation IC50
# T2 construct: expressed in transfected cells
# How it was run: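 HeLa cells stably expressing HiBiT-BRG1 and LgBiT treated 24 h with 10-point 3-fold dilutions (top 30 μM, duplicate). Luminescence read after Nano-Glo HiBiT lytic reagent; % degradation relative to DMSO (high control) and 2 μM reference BRM/BRG1 degrader (low control).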
# T2 sequence (P51532 whole entry, the tested form may be a part): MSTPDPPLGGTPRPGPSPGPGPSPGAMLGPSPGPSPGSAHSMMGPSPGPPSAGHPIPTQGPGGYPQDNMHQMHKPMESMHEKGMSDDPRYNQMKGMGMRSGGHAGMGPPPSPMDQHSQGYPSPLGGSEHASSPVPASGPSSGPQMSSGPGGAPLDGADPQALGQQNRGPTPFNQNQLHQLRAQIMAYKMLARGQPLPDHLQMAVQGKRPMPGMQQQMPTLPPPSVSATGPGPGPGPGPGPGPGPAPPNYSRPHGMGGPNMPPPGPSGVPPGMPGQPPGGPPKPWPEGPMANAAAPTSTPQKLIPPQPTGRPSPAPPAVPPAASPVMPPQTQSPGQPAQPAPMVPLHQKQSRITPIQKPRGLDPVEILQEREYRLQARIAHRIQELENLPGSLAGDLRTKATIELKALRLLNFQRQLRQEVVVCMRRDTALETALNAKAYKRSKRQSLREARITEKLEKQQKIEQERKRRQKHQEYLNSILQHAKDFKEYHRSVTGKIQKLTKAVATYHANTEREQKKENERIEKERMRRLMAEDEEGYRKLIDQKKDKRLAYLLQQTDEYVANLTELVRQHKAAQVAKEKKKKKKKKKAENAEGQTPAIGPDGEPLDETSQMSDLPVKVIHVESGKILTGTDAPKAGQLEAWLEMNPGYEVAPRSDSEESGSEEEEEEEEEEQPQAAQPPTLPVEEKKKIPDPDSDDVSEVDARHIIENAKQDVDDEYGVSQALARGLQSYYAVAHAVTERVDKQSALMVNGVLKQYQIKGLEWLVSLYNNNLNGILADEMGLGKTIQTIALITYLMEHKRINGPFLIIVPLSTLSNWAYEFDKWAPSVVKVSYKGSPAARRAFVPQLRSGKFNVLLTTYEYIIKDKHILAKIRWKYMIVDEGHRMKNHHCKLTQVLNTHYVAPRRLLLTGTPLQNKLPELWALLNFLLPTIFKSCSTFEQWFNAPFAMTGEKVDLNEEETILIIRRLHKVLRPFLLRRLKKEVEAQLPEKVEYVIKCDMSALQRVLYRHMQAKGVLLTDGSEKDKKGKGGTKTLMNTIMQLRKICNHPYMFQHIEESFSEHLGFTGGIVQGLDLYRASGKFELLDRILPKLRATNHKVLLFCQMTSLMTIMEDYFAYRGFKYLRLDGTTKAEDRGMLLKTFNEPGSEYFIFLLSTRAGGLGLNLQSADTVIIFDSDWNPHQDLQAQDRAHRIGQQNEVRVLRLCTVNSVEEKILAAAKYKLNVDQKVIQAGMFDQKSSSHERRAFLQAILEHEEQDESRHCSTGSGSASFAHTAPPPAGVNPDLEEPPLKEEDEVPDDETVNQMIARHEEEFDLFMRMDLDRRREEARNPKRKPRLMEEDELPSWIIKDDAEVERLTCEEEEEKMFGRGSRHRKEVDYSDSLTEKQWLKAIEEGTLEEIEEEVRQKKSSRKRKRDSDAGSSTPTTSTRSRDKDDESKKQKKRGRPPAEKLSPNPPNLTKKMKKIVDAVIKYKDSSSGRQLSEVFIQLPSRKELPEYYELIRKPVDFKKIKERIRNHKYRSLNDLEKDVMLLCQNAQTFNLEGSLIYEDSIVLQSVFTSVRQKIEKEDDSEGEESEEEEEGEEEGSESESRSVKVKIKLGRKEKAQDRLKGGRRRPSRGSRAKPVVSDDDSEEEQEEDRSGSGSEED
# T1 sequence (P51531 whole entry, the tested form may be a part): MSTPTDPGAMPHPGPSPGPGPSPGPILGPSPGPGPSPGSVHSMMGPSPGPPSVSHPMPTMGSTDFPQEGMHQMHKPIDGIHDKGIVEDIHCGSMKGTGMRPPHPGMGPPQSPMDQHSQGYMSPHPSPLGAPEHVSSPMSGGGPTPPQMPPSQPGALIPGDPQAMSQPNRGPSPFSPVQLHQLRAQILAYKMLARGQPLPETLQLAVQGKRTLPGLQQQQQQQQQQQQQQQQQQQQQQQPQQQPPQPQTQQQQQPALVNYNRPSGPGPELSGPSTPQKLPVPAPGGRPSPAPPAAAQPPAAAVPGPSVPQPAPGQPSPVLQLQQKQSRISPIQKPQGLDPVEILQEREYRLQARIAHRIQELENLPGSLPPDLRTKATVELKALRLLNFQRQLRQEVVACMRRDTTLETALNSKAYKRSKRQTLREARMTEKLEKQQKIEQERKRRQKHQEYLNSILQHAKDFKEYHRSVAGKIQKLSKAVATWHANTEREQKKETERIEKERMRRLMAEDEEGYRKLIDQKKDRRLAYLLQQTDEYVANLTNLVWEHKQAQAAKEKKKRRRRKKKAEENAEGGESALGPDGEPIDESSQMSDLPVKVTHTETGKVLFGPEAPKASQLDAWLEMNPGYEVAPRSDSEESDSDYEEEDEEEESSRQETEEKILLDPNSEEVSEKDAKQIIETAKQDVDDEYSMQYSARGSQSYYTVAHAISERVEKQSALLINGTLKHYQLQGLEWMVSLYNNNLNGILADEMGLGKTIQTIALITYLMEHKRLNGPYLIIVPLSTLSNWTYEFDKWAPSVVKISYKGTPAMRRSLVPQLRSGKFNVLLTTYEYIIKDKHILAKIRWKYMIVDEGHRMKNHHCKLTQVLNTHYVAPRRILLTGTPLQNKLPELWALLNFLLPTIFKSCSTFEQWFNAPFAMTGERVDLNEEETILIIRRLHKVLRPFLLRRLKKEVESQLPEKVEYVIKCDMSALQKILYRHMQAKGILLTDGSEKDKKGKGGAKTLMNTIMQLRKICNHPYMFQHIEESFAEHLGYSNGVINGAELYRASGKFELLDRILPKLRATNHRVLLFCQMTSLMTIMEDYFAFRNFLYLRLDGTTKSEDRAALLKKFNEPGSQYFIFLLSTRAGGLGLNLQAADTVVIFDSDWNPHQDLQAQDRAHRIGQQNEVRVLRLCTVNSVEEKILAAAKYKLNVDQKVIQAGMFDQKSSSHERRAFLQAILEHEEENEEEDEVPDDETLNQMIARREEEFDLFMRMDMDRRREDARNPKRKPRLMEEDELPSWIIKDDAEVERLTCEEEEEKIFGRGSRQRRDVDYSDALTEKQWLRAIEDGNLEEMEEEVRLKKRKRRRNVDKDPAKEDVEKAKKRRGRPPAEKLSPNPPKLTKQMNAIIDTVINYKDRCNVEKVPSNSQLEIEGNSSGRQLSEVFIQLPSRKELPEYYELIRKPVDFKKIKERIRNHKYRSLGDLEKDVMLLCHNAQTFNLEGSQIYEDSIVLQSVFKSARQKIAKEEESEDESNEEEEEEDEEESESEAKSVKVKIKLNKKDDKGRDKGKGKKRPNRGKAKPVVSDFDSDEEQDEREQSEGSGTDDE
Compound,DC50 (HiBit-BRM fusion protein),Dmax [1],DC50 [1],BRM HiBit Degradation Maximum (%) (HiBit-BRM fusion protein)
"Cc1ncsc1-c1ccc([C@H](C)NC(=O)[C@@H]2C[C@@H](O)CN2C(=O)[C@@H](c2cc(O[C@H]3CC[C@@H]3N3CCC(c4sc5nnc(-c6ccccc6O)cc5c4C)CC3)no2)C(C)C)cc1 [Compound 36, (2S,4R)-4-hydroxy-1-[(2R)-2-{3-[(1S,2S)-2-{4-[3-(2-hydroxyphenyl)-5-methylthieno[2,3-c]pyridazin-6-yl]piperidin-1-yl}cyclobutoxy]-1,2-oxazol-5-yl}-3-methylbutanoyl]-N-[(1S)-1-[4-(4-methyl-1,3-thiazol-5-yl)phenyl]ethyl]pyrrolidine-2-carboxamide]",≥ 10 nM,< 50%,≥ 1000 nM,B (“B” indicates maximum degradation ≥ 50%)
"Cc1ncsc1-c1ccc([C@H](C)NC(=O)[C@@H]2C[C@@H](O)CN2C(=O)[C@@H](c2cc(OCCN3C[C@H]4C[C@@H](C3)[C@H]4c3sc4nnc(-c5ccccc5O)cc4c3C)no2)C(C)C)cc1 [Compound 62, (2S,4R)-4-hydroxy-1-((R)-2-(3-(2-((1R,5S,6S)-6-(3-(2-hydroxyphenyl)-5-methylthieno[2,3-c]pyridazin-6-yl)-3-azabicyclo[3.1.1]heptan-3-yl)ethoxy)isoxazol-5-yl)-3-methylbutanoyl)-N-((S)-1-(4-(4-methylthiazol-5-yl)phenyl)ethyl)pyrrolidine-2-carboxamide]",≥ 1000 nM,< 50%,≥ 1000 nM,C (“C” indicates maximum degradation < 50%)
"Cc1ncsc1-c1ccc([C@H](C)NC(=O)[C@@H]2C[C@@H](O)CN2C(=O)[C@@H](c2cc(OCCN3CC(Cc4csc5nnc(-c6ccccc6O)cc45)C3)no2)C(C)C)cc1 [Compound 111, (2S,4R)-4-hydroxy-1-((R)-2-(3-(2-(3-((3-(2-hydroxyphenyl)thieno[2,3-c]pyridazin-5-yl)methyl)azetidin-1-yl)ethoxy)isoxazol-5-yl)-3-methylbutanoyl)-N-((S)-1-(4-(4-methylthiazol-5-yl)phenyl)ethyl)pyrrolidine-2-carboxamide]",≥ 1000 nM,< 50%,≥ 1000 nM,C (“C” indicates maximum degradation < 50%)
"Cc1ncsc1-c1ccc([C@H](C)NC(=O)[C@@H]2C[C@@H](O)CN2C(=O)[C@@H](c2cc(N3CCN(CC(=O)N4CC(c5cc6cc(-c7ccccc7O)nnc6s5)C4)CC3)no2)C(C)C)cc1 [Compound 6, (2S,4R)-4-hydroxy-1-[(2R)-2-{3-[4-(2-{3-[3-(2-hydroxyphenyl)thieno[2,3-c]pyridazin-6-yl]azetidin-1-yl}-2-oxoethyl)piperazin-1-yl]-1,2-oxazol-5-yl}-3-methylbutanoyl]-N-[(1S)-1-[4-(4-methyl-1,3-thiazol-5-yl)phenyl]ethyl]pyrrolidine-2-carboxamide]",≥ 100 nM,< 50%,≥ 1000 nM,B (“B” indicates maximum degradation ≥ 50%)
"Cc1ncsc1-c1ccc(CNC(=O)[C@@H]2C[C@@H](O)CN2C(=O)[C@H](c2cc(N3CCOCC3)no2)C(C)C)c(OCCCN2CCC(c3sc4nnc(-c5ccccc5O)cc4c3C)CC2)c1 (single isomer, unassigned) [Compound 55]",≥ 1000 nM,< 50%,≥ 1000 nM,A (“A” indicates maximum degradation ≥ 75%)
"Cc1ncsc1-c1ccc([C@H](C)NC(=O)[C@@H]2C[C@@H](O)CN2C(=O)[C@@H](c2cc(OCCN3CC4(CC(c5sc6nnc(-c7ccccc7O)cc6c5C)C4)C3)no2)C(C)C)cc1 [Compound 88, (2S,4R)-4-hydroxy-1-((R)-2-(3-(2-(6-(3-(2-hydroxyphenyl)-5-methylthieno[2,3-c]pyridazin-6-yl)-2-azaspiro[3.3]heptan-2-yl)ethoxy)isoxazol-5-yl)-3-methylbutanoyl)-N-((S)-1-(4-(4-methylthiazol-5-yl)phenyl)ethyl)pyrrolidine-2-carboxamide]",≥ 10 nM,< 50%,≥ 1000 nM,A (“A” indicates maximum degradation ≥ 75%)
"Cc1ncsc1-c1ccc([C@H](C)NC(=O)[C@@H]2C[C@@H](O)CN2C(=O)[C@@H](c2cc(OCC(=O)N3CCc4sc5nnc(-c6ccccc6O)cc5c4C3)no2)C(C)C)cc1 [Compound 91, (2S,4R)-4-hydroxy-1-((R)-2-(3-(2-(3-(2-hydroxyphenyl)-7,8-dihydropyrido[3′,4′:4, 5]thieno[2,3-c]pyridazin-6(5H)-yl)-2-oxoethoxy)isoxazol-5-yl)-3-methylbutanoyl)-N-((S)-1-(4-(4-methylthiazol-5-yl)phenyl)ethyl)pyrrolidine-2-carboxamide]",≥ 1000 nM,< 50%,≥ 1000 nM,C (“C” indicates maximum degradation < 50%)
"Cc1ncsc1-c1ccc(CNC(=O)[C@@H]2C[C@@H](O)CN2C(=O)[C@@H](NC(=O)C2(F)CC2)C(C)(C)C)c(OCCCN2CCC(c3cc4nnc(-c5ccccc5O)cc4s3)CC2)c1 [Compound 76, (2S,4R)-1-((S)-2-(1-fluorocyclopropane-1-carboxamido)-3,3-dimethylbutanoyl)-4-hydroxy-N-(2-(3-(4-(3-(2-hydroxyphenyl)thieno[3,2-c]pyridazin-6-yl)piperidin-1-yl)propoxy)-4-(4-methylthiazol-5-yl)benzyl)pyrrolidine-2-carboxamide]",≥ 10 nM,< 50%,≥ 100 nM,B (“B” indicates maximum degradation ≥ 50%)
Cc1ncsc1-c1ccc(CNC(=O)[C@@H]2C[C@@H](O)CN2C(=O)[C@@H](NC(=O)CCCC(=O)N2CC(c3cc4cc(-c5ccccc5O)nnc4s3)C2)C(C)(C)C)cc1 [Compound 31],≥ 100 nM,< 50%,≥ 1000 nM,C (“C” indicates maximum degradation < 50%)

# Second part, led by results:
DC50 (HiBit-BRM fusion protein),Dmax [1],DC50 [1],Compound,BRM HiBit Degradation Maximum (%) (HiBit-BRM fusion protein)
≥ 1000 nM,< 50%,≥ 1000 nM,"Cc1ncsc1-c1ccc(CNC(=O)[C@@H]2C[C@@H](O)CN2C(=O)[C@@H](NC(=O)C2(F)CC2)C(C)(C)C)c(OCCN2CCC(c3sc4nnc(-c5ccccc5O)cc4c3C)CC2)c1 [Compound 83, (2S,4R)-1-((S)-2-(1-fluorocyclopropane-1-carboxamido)-3,3-dimethylbutanoyl)-4-hydroxy-N-(2-(2-(4-(3-(2-hydroxyphenyl)-5-methylthieno[2,3-c]pyridazin-6-yl)piperidin-1-yl)ethoxy)-4-(4-methylthiazol-5-yl)benzyl)pyrrolidine-2-carboxamide]",C (“C” indicates maximum degradation < 50%)
≥ 100 nM,≥ 75%,≥ 1000 nM,"Cc1ncsc1-c1ccc(CNC(=O)[C@@H]2C[C@@H](O)CN2C(=O)[C@@H](NC(=O)CCN2CCC(c3cc4nnc(-c5ccccc5O)cc4s3)CC2)C(C)(C)C)cc1 [Compound 78, (2S,4R)-4-hydroxy-1-((S)-2-(3-(4-(3-(2-hydroxyphenyl)thieno[3,2-c]pyridazin-6-yl)piperidin-1-yl)propanamido)-3,3-dimethylbutanoyl)-N-(4-(4-methylthiazol-5-yl)benzyl)pyrrolidine-2-carboxamide]",B (“B” indicates maximum degradation ≥ 50%)
≥ 1000 nM,< 50%,≥ 1000 nM,"Cc1ncsc1-c1ccc(CNC(=O)[C@@H]2C[C@@H](O)CN2C(=O)[C@@H](NC(=O)[C@H]2CC[C@@H](c3cnc(N4CCC(c5sc6nnc(-c7ccccc7O)cc6c5C)CC4)nc3)CC2)C(C)(C)C)cc1 [Compound 86, (2S,4R)-4-hydroxy-1-((S)-2-((1s,4R)-4-(2-(4-(3-(2-hydroxyphenyl)-5-methylthieno[2,3-c]pyridazin-6-yl)piperidin-1-yl)pyrimidin-5-yl)cyclohexane-1-carboxamido)-3,3-dimethylbutanoyl)-N-(4-(4-methylthiazol-5-yl)benzyl)pyrrolidine-2-carboxamide]",C (“C” indicates maximum degradation < 50%)
≥ 1000 nM,< 50%,≥ 1000 nM,"Cc1ncsc1-c1ccc([C@H](C)NC(=O)[C@@H]2C[C@@H](O)CN2C(=O)[C@@H](NC(=O)[C@H]2CC[C@H](c3sc4nnc(-c5ccccc5O)cc4c3C)CC2)C(C)(C)C)cc1 [Compound 51, (2S,4R)-4-hydroxy-1-((S)-2-((1r,4S)-4-(3-(2-hydroxyphenyl)-5-methylthieno[2,3-c]pyridazin-6-yl)cyclohexane-1-carboxamido)-3,3-dimethylbutanoyl)-N-((S)-1-(4-(4-methylthiazol-5-yl)phenyl)ethyl)pyrrolidine-2-carboxamide]",C (“C” indicates maximum degradation < 50%)
≥ 10 nM,< 50%,≥ 1000 nM,"Cc1ncsc1-c1ccc([C@H](C)NC(=O)[C@@H]2C[C@@H](O)CN2C(=O)C(c2cc(C3CC(N4CCC(c5sc6nnc(-c7ccccc7O)cc6c5C)CC4)C3)no2)C(C)C)cc1 (single isomer, unassigned) [Compound 34]",A (“A” indicates maximum degradation ≥ 75%)
